The values that follow come from patent publication US20160310584A1, “FORMULATIONS FOR NEOPLASIA VACCINES” (THE BROAD INSTITUTE INC., priority 2013, published 2016).

Type in all cases: physicochemical
The nature of data set [1]: Freeze/thaw and frozen storage stability (RP-HPLC, pH, visual inspection). The note with it: −20° C. stability study. The procedure: Two individual peptides were dissolved in DMSO/D5W and placed on stability at two temperatures (−20° C. and −80° C.). These peptides were evaluated (RP-HPLC and pH and visual inspection) for up to 24 weeks. […] Any small changes appear to be due to assay variability as no trends were noted to be evaluated.
A peptide pool (Pool 4) consisting of five peptides was prepared by dissolution in DMSO, dilution with D5W/Succinate (5 mM) to 2 mg/ml and pooling to a final peptide concentration of 400 μg per ml and a final DMSO concentration of 4%. After preparation, peptides were filtered with a 25 mm Pall PES filter (Cat #4612) and dispensed into Nunc Cryo vials (#375418) in one ml aliquots. Samples were analyzed at time zero and at 2 and 4 weeks to date. Additional samples are analyzed at 8 and 24 weeks.

A short description of a further data set: pH of peptide solutions. The procedure:
(§1) In a representative procedure, peptides were weighed and corrected for % peptide content, and then dissolved in DMSO to a concentration of 50 mg/mL. The DMSO/Peptide solution was then diluted with 5 mM sodium succinate in D5W to a 2 mg/mL peptide concentration.

Data set [2] in a line: Peptide diluent matrix (precipitation on dilution of DMSO dissolved peptides). The settings on record: 5 peptides in one vial diluted to 400 μg/mL. The procedure:
Additional peptide solubility conditions were tested. Peptides CS6709, CS6712, CS6720, CS6726, and CS6783 were weighed at approximately 10 mg each. The peptides were then dissolved in approximately 200 μL USP grade DMSO to obtain a 50 mg/mL concentration for each peptide. […] The sample appeared to be cloudy. […] The volume of CS6709 added to the single vial was 120 μL. […] Upon addition of the PBS pH 7.4, it was observed that one or more of the peptides had precipitated out. To determine which of the peptides precipitated, Applicants followed the matrix in Table 5 below using very small amounts (10-20 μL) of the DMSO dissolved peptides and adding these peptides to the various liquids.

Data set [3] in a line: Peptide solubility evaluation: dissolution in DMSO, dilution in D5W with or without succinate. The settings on record: DMSO/D5W; Table 4; Y/N; diluted to 2 mg/ml; read-out: Solubility In DMSO/D5W. The procedure:
as §1
Additional peptide solubility conditions were tested. Peptides CS6709, CS6712, CS6720, CS6726, and CS6783 were weighed at approximately 10 mg each. The peptides were then dissolved in approximately 200 μL USP grade DMSO to obtain a 50 mg/mL concentration for each peptide. […] Additional 50 μL increments of DMSO were added to Peptide CS6709 up to 400 μL; for a total of 600 μL of DMSO.
Based on gross weight and peptide content, 15 mg (net weight) or slightly more of each individual peptide are weighed and 100% USP Grade DMSO […] is added to achieve a final peptide concentration of 50 mg/ml.

Take “H-SKRGVGAKTLLLPDPFLFWPCLEGTRRSL-OH [CS6934]”: the “Heterodimer formation (mass spectrometry)” value in data set [1] is “can form a heterodimer”. Besides, in “pH of peptide solutions”, the “pH of peptides in DMSO/D5W/5 mM S. Succinate spike” value is 6.57; the “pH of peptides in DMSO/D5W/5 mM Succinate and Hiltonol” value is 6.79.

For the substance “H-KLAWRGRISSSGCPSMTSPPSPMFGMTLHT-OH [CS6919]”, the “Heterodimer formation (mass spectrometry)” value in data set [1] is on record as “can form a heterodimer”. In “pH of peptide solutions”, the “pH of peptides in DMSO/D5W/5 mM S. Succinate spike” value is 6.74; the “pH of peptides in DMSO/D5W/5 mM Succinate and Hiltonol” value is recorded as 6.99.

As for “H-LLTDRNTSGTTFTLLGVSDYPELQVPLFLVFLA-OH [CS6783]”, the “Precipitation when PBS pH 7.4 was added as diluent to the peptide mixture” value in data set [2] was “precipitate”. Also, in data set [3], the solubility was less than 2000 µg/mL.
